Measured values published in article PMC6753678, “Fueling Open Innovation for Malaria Transmission-Blocking Drugs: Hundreds of Molecules Targeting Early Parasite Mosquito Stages” (Frontiers in Microbiology, 2019).
Read-outs that look alike come from different tables or passages of the source.

Columns and labels:
HepG2 cells [1] = test: HepG2 cytotoxicity assay
In short: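 Here viability after a 48 h compound incubation (37°C, humidified 5% CO2) is measured by fluorescence and expressed as percent inhibition, with doxorubicin at 50 μM and DMSO as the bounding controls.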

[2] = tested on: P. falciparum late stage (stages IV-V) gametocytes; parameters: method as in Almela et al 2016; conditions: ref Almela et al 2016, read-out: Pf GCT ATP IC50, cited from earlier work
HepG2 cells [3] = conditions: ref Almela et al 2016, cited from earlier work; for HepG2 cytoxicity (Pf GCT ATP screen): HepG2 value reported with Pf GCT ATP screen
[4] = tested on: P. falciparum late stage (stages IV-V) gametocytes; test: P. falciparum late stage gametocyte ATP depletion assay (Pf GC-ATP); conditions: 1: YES, 0: NO
[5] = HepG2 cytotoxicity unified across screens, bounds (>) given as plain numbers
[6] = unified HepG2 value across the three screens
[7] = P. falciparum late stage gametocyte ATP assay
[8] = HepG2 data listed with Pf GCT ATP screen
[9] = HepG2 cytotoxicity unified across screens, >25 set to 25.00
[10] = P. falciparum late stage gametocyte ATP assay, TCAMS screen
[11] = reported with the Pf GCT ATP screen
[12] = >10-fold selectivity over cytotoxicity

Row | Compound | Is compound selective in assay? Pf GC-ATP active? [4] | Unified cytotox (HepG2 cells [1]; [9]) [µM] | IC50 [2, 10] [nM] | HepG2 cytoxicity (HepG2 cells [3]; [11]) [µM] | Is compound selective in assay? Pf GC-ATP active? [4, 12] | further results
1 | CCCCCOc1ccc(C(O)C(CCC(CN2CCCCCC2)C(O)c2ccc(OCCCCC)cc2)CN2CCCCCC2)cc1.Cl (stereo not shown) [TCMDC-124174] | 0 (0: NO) | – | – | – | – | Unified cytotox (HepG2 cells [1]; [5]): 6.80 µM; IC50 ([2]; TCAMS library screen): 1200 nM; HepG2 cytoxicity (Pf GCT ATP screen) (HepG2 cells [3]): 6.8 µM
2 | Oc1c(C(Nc2nc3ccccc3s2)c2ccc(OC(F)F)cc2)ccc2cccnc12 (stereo not shown) [TCMDC-124379] | 1 (1: YES) | – | – | – | – | Unified cytotox (HepG2 cells [1]; [5]): 24.10 µM; IC50 ([2]; TCAMS library screen): 440 nM; HepG2 cytoxicity (Pf GCT ATP screen) (HepG2 cells [3]): 24.1 µM
3 | O=C(O)C(=O)O.Oc1c(CN2CCC(Cc3ccccc3)CC2)cc(Cl)c2cccnc12 [TCMDC-124594] | 1 (1: YES) | – | – | – | – | Unified cytotox (HepG2 cells [1]; [5]): 9.60 µM; IC50 ([2]; TCAMS library screen): 600 nM; HepG2 cytoxicity (Pf GCT ATP screen) (HepG2 cells [3]): 9.6 µM
4 | Cc1ccc(-n2nc(-c3ccccc3)c3cc(C(=O)NCCN)sc32)cc1 [TCMDC-124776] | 0 (0: NO) | – | – | – | – | Unified cytotox (HepG2 cells [1]; [5]): 7.83 µM; IC50 ([2]; TCAMS library screen): 1110 nM; HepG2 cytoxicity (Pf GCT ATP screen) (HepG2 cells [3]): 7.83 µM
5 | COc1ccccc1-c1cccc(-c2cccc(NC(=O)c3ccc([N+](=O)[O-])o3)c2)n1 [TCMDC-124800] | 0 (0: NO) | – | – | – | – | Unified cytotox (HepG2 cells [1]; [5]): 11.47 µM; IC50 ([2]; TCAMS library screen): 1660 nM; HepG2 cytoxicity (Pf GCT ATP screen) (HepG2 cells [3]): 11.47 µM
6 | O=C(Nc1cccc(-c2cccc(-c3ccc(F)cc3)n2)c1)c1ccc([N+](=O)[O-])o1 [TCMDC-124807] | 0 (0: NO) | – | – | – | – | Unified cytotox (HepG2 cells [1]; [6]): 6.94 µM; IC50 [2, 7]: 1530 nM; HepG2 cytoxicity (HepG2 cells [3]; [8]): 6.94 µM
7 | CCN(CC)CCCOC(=O)c1ccc2c(c1)-c1ccc(C(=O)OCCCN(CC)CC)c3cccc-2c13.Cl [TCMDC-125491] | 1 (1: YES) | – | – | – | – | Unified cytotox (HepG2 cells [1]; [6]): 20.00 µM; IC50 [2, 7]: 140 nM; HepG2 cytoxicity (HepG2 cells [3]; [8]): 20 µM
8 | CC(C)c1ccc(NC(=S)NN=Cc2ccccn2)cc1 [TCMDC-125520] | 1 (1: YES) | – | – | – | – | Unified cytotox (HepG2 cells [1]; [6]): 12.80 µM; IC50 [2, 7]: 10 nM; HepG2 cytoxicity (HepG2 cells [3]; [8]): 12.8 µM
9 | O=[N+]([O-])c1ccc(C=NNc2nc(Nc3ccccc3)nc(Nc3ccccc3)n2)o1 [TCMDC-125802] | 1 (1: YES) | – | – | – | – | Unified cytotox (HepG2 cells [1]; [6]): 14.82 µM; IC50 [2, 7]: 1310 nM; HepG2 cytoxicity (HepG2 cells [3]; [8]): 14.82 µM
10 | Cc1cccnc1Nc1nc(-c2ccccn2)cs1 [TCMDC-125846] | 1 (1: YES) | – | – | – | – | Unified cytotox (HepG2 cells [1]; [6]): 3.02 µM; IC50 [2, 7]: 100 nM; HepG2 cytoxicity (HepG2 cells [3]; [8]): 3.02 µM
11 | COc1cccc(CCNCCCCCCNCCc2ccc(Cl)cc2)c1.Cl [TCMDC-131284] | 1 (1: YES) | – | – | – | – | Unified cytotox (HepG2 cells [1]; [6]): 6.10 µM; IC50 [2, 7]: 530 nM; HepG2 cytoxicity (HepG2 cells [3]; [8]): 6.1 µM
12 | CCNC1=NC2=C(CC(C(C)(C)C)CC2)C2(CCC(C(C)(C)C)CC2)S1.Cl (stereo not shown) [TCMDC-131288] | 0 (0: NO) | – | – | – | – | Unified cytotox (HepG2 cells [1]; [6]): 14.30 µM; IC50 [2, 7]: 3000 nM; HepG2 cytoxicity (HepG2 cells [3]; [8]): 14.3 µM
13 | CCN(CC)/C(=N\CCCCCC/N=C(\NC(=N)c1ccc(Cl)cc1)N(CC)CC)NC(=N)c1ccc(Cl)cc1 [TCMDC-131806] | 1 (1: YES) | – | – | – | – | Unified cytotox (HepG2 cells [1]; [6]): 43.60 µM; IC50 [2, 7]: 840 nM; HepG2 cytoxicity (HepG2 cells [3]; [8]): 43.6 µM
14 | SC(=Nc1ccc2c(c1)OCCO2)NN=Cc1ccccn1 [TCMDC-132009] | 0 (0: NO) | – | – | – | – | Unified cytotox (HepG2 cells [1]; [6]): 3.28 µM; IC50 [2, 7]: 830 nM; HepG2 cytoxicity (HepG2 cells [3]; [8]): 3.28 µM
15 | COc1ccc(CCNc2nc(NCc3ccccc3)c3cc(OC)c(OC)cc3n2)cc1OC [TCMDC-132017] | 0 (0: NO) | – | – | – | – | Unified cytotox (HepG2 cells [1]; [6]): 4.58 µM; IC50 [2, 7]: 5600 nM; HepG2 cytoxicity (HepG2 cells [3]; [8]): 4.58 µM
16 | COc1cc2c(c(Cl)c1OC)CCN(C(=O)C(F)(F)F)CC2c1ccccc1 (stereo not shown) [TCMDC-132071] | – | 25.00 | 1950 | >25 | 1 (1: YES) | –
17 | Fc1ccc2[nH]c(-c3ccc(-c4ccc(CNCCN5CCNCC5)cc4)s3)nc2c1.O=C(O)C(F)(F)F [TCMDC-132869] | – | 25.00 | 530 | >25 | 1 (1: YES) | –

Row | Compound | Is compound selective in assay? Pf GC-ATP active? [4] | Unified cytotox (HepG2 cells [1]; [9]) [µM] | IC50 [2, 10] [nM] | HepG2 cytoxicity (HepG2 cells [3]; [11]) [µM] | Is compound selective in assay? Pf GC-ATP active? [4, 12] | further results
18 | Nc1ncc(-c2ccc3nccc(-c4ccncc4)c3c2)cc1S(=O)(=O)N1CCCCC1 [TCMDC-134265] | – | 25.00 | 2070 | >25 | 1 (1: YES) | –
19 | COc1cccc(Nc2c(C(N)=O)cnc3ccc(-c4ccc([S+](C)[O-])cc4)cc23)c1.O=C(O)C(F)(F)F (stereo not shown) [TCMDC-135184] | – | 25.00 | 1430 | >25 | 1 (1: YES) | –
20 | COc1cc(NC(=O)c2sc(-c3ccc(Cl)cc3)cc2NC(=O)c2cccnc2)ccc1OCCN1CCCC1 [TCMDC-135397] | – | 25.00 | 610 | >25 | 1 (1: YES) | –
21 | Cc1ccc(-n2c(C)nc3c(Nc4ccc(-c5ccncc5)cc4)ncnc32)c(C)c1 [TCMDC-136289] | – | 25.00 | 530 | >25 | 1 (1: YES) | –
22 | CS(=O)(=O)c1cccc(-c2cnc3[nH]cc(-c4cccc(CCN)c4)c3c2)c1 [TCMDC-136307] | – | 25.00 | 470 | >25 | 1 (1: YES) | –
23 | CCn1ncc2c(NC3CCOCC3)c(CNC(=O)c3ccnn3C)c(C)nc21 [TCMDC-136560] | – | 25.00 | 1640 | >25 | 1 (1: YES) | –
24 | Cl.Ic1cc(CNC2CCCCC2)ccc1OCc1cccc(COc2ccc(CNC3CCCCC3)cc2I)c1 [TCMDC-137261] | – | 25.00 | 330 | >25 | 1 (1: YES) | –
25 | COc1ccc2nc3cc(Cl)ccc3c(NCCCCCCNc3c4ccc(Cl)cc4nc4ccc(OC)cc34)c2c1.Cl.Cl.Cl.Cl [TCMDC-137503] | – | 25.00 | 50 | >25 | 1 (1: YES) | –
26 | CC(C)CCNC(=N)Nc1ccc(OCCCCCOc2ccc(NC(=N)NCCC(C)C)cc2)cc1 [TCMDC-137614] | – | 25.00 | 510 | >25 | 1 (1: YES) | –
27 | CC(C)CCNC(=N)Nc1ccc(OCCCOc2ccc(NC(=N)NCCC(C)C)cc2)cc1 [TCMDC-137615] | – | 25.00 | 290 | >25 | 1 (1: YES) | –
28 | CC(=NNC(=S)NCCc1ccccn1)c1ccccn1 [TCMDC-137895] | – | 25.00 | 1490 | >25 | 1 (1: YES) | –
29 | COc1cc2nc(NCC3CCN(c4nc(N)c5cc(OC)c(OC)cc5n4)CC3)nc(N)c2cc1OC [TCMDC-138723] | – | 25.00 | 1420 | >25 | 1 (1: YES) | –
30 | CCN(CC)Cc1cc(Nc2c3ccc(Cl)cc3nc3cccc(OC)c23)ccc1O.Cl [TCMDC-139222] | – | 25.00 | 1000 | >25 | 1 (1: YES) | –
31 | N=C(N)Nc1nc(-c2ccc(NC(=O)Nc3cccc(-c4csc(NC(=N)N)n4)c3)cc2)cs1 [TCMDC-139559] | – | 25.00 | 1430 | >25 | 1 (1: YES) | –
32 | CC(Cc1ccc(CNC(=O)NCc2ccc(CC(C)NCCc3cccc(Cl)c3)cc2)cc1)NCCc1cccc(Cl)c1 (stereo not shown) [TCMDC-139648] | 0 (0: NO) | – | – | – | – | Unified cytotox (HepG2 cells [1]; HepG2 cytotoxicity unified across the three screens): 4.18 µM; IC50 ([2]; TCAMS screen comparison): 610 nM; HepG2 cytoxicity (HepG2 cells [3]; value reported with the Pf GCT ATP screen): 4.18 µM
33 | CC(C)CNCc1cccc(-c2cccc(CNCCCN3CCN(C)CC3)c2)c1.O=C(O)C(F)(F)F [TCMDC-140483] | – | 25.00 | 1560 | >25 | 1 (1: YES) | –
34 | CC(C)CNCc1cccc(-c2ccc(CN(CCCN3CCN(C)CC3)C(=O)CCC3CCCC3)cc2)c1.O=C(O)C(F)(F)F [TCMDC-140558] | – | 25.00 | 700 | >25 | 1 (1: YES) | –
